In patent US11952363B2, “Piperazine compounds for the treatment of autoimmune disease” (Hoffmann-La Roche Inc., priority 2018, dated 2024):

Tests used:
human TLR7 = molecular target: T1, human TLR7 (Homo sapiens, UniProt Q9NYK1); assay: HEK293-Blue-hTLR-7 cells assay (SEAP reporter, R848 stimulation); format: cell-based; details: HEK293-Blue-hTLR7 cells, R848 ligand, 20 hrs incubation; read-out: HEK/hTLR7 IC50
T1 sequence (Q9NYK1 27-1049): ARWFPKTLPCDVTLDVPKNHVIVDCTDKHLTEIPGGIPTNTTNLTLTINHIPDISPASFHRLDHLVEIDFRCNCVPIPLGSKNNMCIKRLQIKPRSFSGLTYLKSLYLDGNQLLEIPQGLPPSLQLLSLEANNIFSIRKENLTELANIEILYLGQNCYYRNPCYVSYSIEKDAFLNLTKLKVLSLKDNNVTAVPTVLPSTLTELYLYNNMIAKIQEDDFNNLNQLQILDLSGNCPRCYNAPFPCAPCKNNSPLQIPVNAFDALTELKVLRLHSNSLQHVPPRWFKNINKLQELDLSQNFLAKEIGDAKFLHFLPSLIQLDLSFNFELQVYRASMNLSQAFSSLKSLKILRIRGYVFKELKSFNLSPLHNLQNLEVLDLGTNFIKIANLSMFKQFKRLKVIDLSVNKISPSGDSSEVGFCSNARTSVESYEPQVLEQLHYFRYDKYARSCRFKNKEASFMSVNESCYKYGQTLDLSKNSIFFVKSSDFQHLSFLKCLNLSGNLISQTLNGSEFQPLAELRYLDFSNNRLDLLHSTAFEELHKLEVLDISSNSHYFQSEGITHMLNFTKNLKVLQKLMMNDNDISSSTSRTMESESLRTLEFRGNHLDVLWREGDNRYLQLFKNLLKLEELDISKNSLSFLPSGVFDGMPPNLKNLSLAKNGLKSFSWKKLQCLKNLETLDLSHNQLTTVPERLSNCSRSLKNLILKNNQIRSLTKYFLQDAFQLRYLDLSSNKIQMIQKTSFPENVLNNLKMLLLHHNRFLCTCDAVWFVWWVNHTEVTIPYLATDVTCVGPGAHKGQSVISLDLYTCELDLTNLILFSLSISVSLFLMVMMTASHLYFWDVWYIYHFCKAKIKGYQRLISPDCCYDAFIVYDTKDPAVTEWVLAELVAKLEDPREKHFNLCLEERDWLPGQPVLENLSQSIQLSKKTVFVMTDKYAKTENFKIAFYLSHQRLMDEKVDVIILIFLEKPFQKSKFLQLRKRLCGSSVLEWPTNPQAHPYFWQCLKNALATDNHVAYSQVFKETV
Protocol: The following tests were carried out in order to determine the activity of the compounds of formula (I) in HEK293-Blue-hTLR-7/8/9 cells assay.
A stable HEK293-Blue-hTLR-7 cell line was purchased from InvivoGen (Cat.#: hkb-htlr7, San Diego, California, USA). These cells were originally designed for studying the stimulation of human TLR7 by monitoring the activation of NF-κB. A SEAP (secreted embryonic alkaline phosphatase) reporter gene was placed under the control of the IFN-β minimal promoter fused to five NF-κB and AP-1-binding sites. The SEAP was induced by activating NF-κB and AP-1 via stimulating HEK-Blue hTLR7 cells with TLR7 ligands. Therefore the reporter expression was declined by TLR7 antagonist under the stimulation of a ligand, such as R848 (Resiquimod), for incubation of 20 hrs. The cell culture supernatant SEAP reporter activity was determined using QUANTI-Blue™ kit (Cat.#: rep-qb1, Invivogen, San Diego, Ca, USA) at a wavelength of 640 nm, a detection medium that turns purple or blue in the presence of alkaline phosphatase.
HEK293-Blue-hTLR7 cells were incubated at a density of 250,000˜450,000 cells/mL in a volume of 170 μL in a 96-well plate in Dulbecco's Modified Eagle's medium (DMEM) containing 4.5 g/L glucose, 50 U/mL penicillin, […], […], 2 mM L-glutamine, 10% (v/v) heat-inactivated fetal bovine serum with addition of 20 μL test compound in a serial dilution in the presence of final DMSO at 1% and 10 μL of 20 uM R848 in above DMEM, perform incubation under 37° C. in a CO2 incubator for 20 hrs. Then 20 μL of the supernatant from each well was incubated with […] Quanti-blue substrate solution at 37° C. for 2 hrs and the absorbance was read at 620-655 nm using a spectrophotometer. The signalling pathway that TLR7 activation leads to downstream NF-κB activation has been widely accepted, and therefore similar reporter assay was modified for evaluating TLR7 antagonist.

[1] = Human microsomal stability assay; format: in vitro ADME; details: human liver microsomes 0.5 mg/mL, 1 μM test compound, 37° C., pH 7.4
Protocol: Human liver microsomes (Cat.NO.: 452117, Corning, USA) were preincubated with test compound for 10 minutes at 37° C. in 100 mM potassium phosphate buffer, pH 7.4. The reactions were initiated by adding NADPH regenerating system. The final incubation mixtures contained 1 μM test compound, 0.5 mg/mL liver microsomal protein, 1 mM MgCl2, 1 mM NADP, 1 unit/mL isocitric dehydrogenase and 6 mM isocitric acid in 100 mM potassium phosphate buffer, pH 7.4. After incubation times of 0, 3, 6, 9, 15 and 30 minutes at 37° C., 300 μL of cold ACN (including internal standard) was added to 100 μL incubation mixture to terminate the reaction. Following precipitation and centrifugation, 100 uL supernatant will be taken out and added 300 uL water. The amount of compound remaining in the samples was determined by LC-MS/MS. Controls of no NADPH regenerating system at zero and 30 minutes were also prepared and analyzed.

| SMILES | IC50 (human TLR7) | Clearance of Human microsome [1] |
| --- | --- | --- |
| C[C@@H]1CN(c2ccc(C#N)c3ncccc23)C[C@H](C)N1Cc1ccc(N2CCNCC2)cc1 [Example 1, 5-[(3R,5S)-3,5-Dimethyl-4-[(4-piperazin-1-ylphenyl)methyl]piperazin-1-yl]quinoline-8-carbonitrile] | 0.053 µM | 11.2 mL/min/kg |
| C[C@@H]1CN(c2ccc(C#N)c3ncccc23)C[C@@H](C)N1Cc1ccc(N2CCNCC2)cc1 [Example 2] | 0.087 µM | 8.0 mL/min/kg |
| C[C@@H]1CN(c2ccc(C#N)c3ncccc23)C[C@H](C)N1Cc1ccc(N2CCNCC2)nc1 [Example 3, 5-[(3R,5S)-3,5-Dimethyl-4-[(6-piperazin-1-yl-3-pyridyl)methyl]piperazin-1-yl]quinoline-8-carbonitrile] | 0.019 µM | 11.6 mL/min/kg |
| C[C@@H]1CN(c2ccc(C#N)c3ncccc23)C[C@H](C)N1Cc1ncc(N2CCNCC2)cn1 [Example 4, 5-[(3S,5R)-3,5-Dimethyl-4-[(5-piperazin-1-ylpyrimidin-2-yl)methyl]piperazin-1-yl]quinoline-8-carbonitrile] | 0.016 µM | 10.4 mL/min/kg |
| C[C@@H]1CN(c2ccc(C#N)c3ncccc23)C[C@H](C)N1Cc1ccc(N2CCNCC2)cn1 [Example 5, 5-[(3S,5R)-3,5-Dimethyl-4-[(5-piperazin-1-yl-2-pyridyl)methyl]piperazin-1-yl]quinoline-8-carbonitrile] | 0.012 µM | – |
| C[C@@H]1CN(c2ccc(C#N)c3ncccc23)C[C@H](C)N1Cc1ncc(N2CCN(C(=O)CN(C)C)CC2)cn1 [Example 6, 5-[(3S,5R)-4-[[5-[4-[2-(Dimethylamino)acetyl]piperazin-1-yl]pyrimidin-2-yl]methyl]-3,5-dimethyl-piperazin-1-yl]quinoline-8-carbonitrile] | 0.067 µM | 10.5 mL/min/kg |
| C[C@@H]1CN(c2ccc(C#N)c3ncccc23)C[C@H](C)N1Cc1ccc(N2CCN(C)CC2)cn1 [Example 7, 5-[(3S,5R)-3,5-dimethyl-4-[[5-(4-methylpiperazin-1-yl)-2-pyridyl]methyl]piperazin-1-yl]quinoline-8-carbonitrile] | 0.03 µM | – |
| C[C@@H]1CN(c2ccc(C#N)c3ncccc23)C[C@H](C)N1Cc1ccc(N2CC3CNCC(C2)O3)cn1 [Example 8, 5-[(3S,5R)-3,5-Dimethyl-4-[[5-(9-oxa-3,7-diazabicyclo[3.3.1]nonan-3-yl)-2-pyridyl]methyl]piperazin-1-yl]quinoline-8-carbonitrile] | 0.078 µM | 12.4 mL/min/kg |
| C[C@@H]1CN(c2ccc(C#N)c3ncccc23)C[C@H](C)N1Cc1ccc(N[C@@H]2CNC[C@@H]2F)cn1 [Example 9, 5-[(3R,5S)-3,5-Dimethyl-4-[[5-[[(3R,4S)-4-fluoropyrrolidin-3-yl]amino]-2-pyridyl]methyl]piperazin-1-yl]quinoline-8-carbonitrile] | 0.051 µM | 12.8 mL/min/kg |
| C[C@@H]1CN(c2ccc(C#N)c3ncccc23)C[C@H](C)N1Cc1ccc(N2CCN(C(=O)C3CCCN3)CC2)cn1 (stereo partly drawn) [Example 10, 5-[(3R,5S)-3,5-Dimethyl-4-[[5-[4-(pyrrolidine-2-carbonyl)piperazin-1-yl]-2-pyridyl]methyl]piperazin-1-yl]quinoline-8-carbonitrile] | 0.069 µM | – |
| C[C@@H]1CN(c2ccc(C#N)c3ncccc23)C[C@H](C)N1Cc1ccc(N2CCN(C(=O)CN(C)C)CC2)cn1 [Example 11, 5-[(3S,5R)-4-[[5-[4-[2-(Dimethylamino)acetyl]piperazin-1-yl]-2-pyridyl]methyl]-3,5-dimethyl-piperazin-1-yl]quinoline-8-carbonitrile] | 0.05 µM | – |
| C[C@@H]1CN(c2ccc(C#N)c3ncccc23)C[C@H](C)N1Cc1ccc(N2CCNCC2CO)cc1 (stereo partly drawn) [Example 12, 5-[(3R,5S)-4-[[4-[2-(Hydroxymethyl)piperazin-1-yl]phenyl]methyl]-3,5-dimethyl-piperazin-1-yl]quinoline-8-carbonitrile] | 0.087 µM | 10.1 mL/min/kg |
| C[C@@H]1CN(c2ccc(C#N)c3ncccc23)C[C@H](C)N1CC(=O)N1CCc2nc(N3CCNCC3)ccc2C1 [Example 13, 5-[(3R,5S)-3,5-Dimethyl-4-[2-oxo-2-(2-piperazin-1-yl-7,8-dihydro-5H-1,6-naphthyridin-6-yl)ethyl]piperazin-1-yl]quinoline-8-carbonitrile] | 0.056 µM | – |
| C[C@@H]1CN(c2ccc(C#N)c3ncccc23)C[C@H](C)N1CC(=O)N1CCc2cc(N3CCNCC3)ccc2C1 [Example 14, 5-[(3R,5S)-3,5-Dimethyl-4-[2-oxo-2-(6-piperazin-1-yl-3,4-dihyrdo-1H-isoquinolin-2-yl)ethyl]piperazin-1-yl]quinoline-8-carbonitrile] | 0.08 µM | 12.9 mL/min/kg |
| C[C@@H]1CN(c2ccc(C#N)c3ncccc23)C[C@H](C)N1CC(=O)N1CCc2ccc(N3CCNCC3)cc2C1 [Example 15, 5-[(3R,5S)-3,5-dimethyl-4-[2-pxp-2-(7-piperazin-1-yl-3,4-dihydro-1H-isoquinolin-2-yl)ethyl]piperazin-1-yl]quinoline-8-carbonitrile] | 0.067 µM | – |
| C[C@@H]1CN(c2ccc(C#N)c3ncccc23)C[C@H](C)N1CC(=O)N1Cc2ccc(N3CCNCC3)cc2C1 [Example 16, 5-[(3R,5S)-3,5-Dimethyl-4-[2-oxo-2-(5-piperazin-1-ylisoindolin-2-yl)ethyl]piperazin-1-yl]quinoline-8-carbonitrile] | 0.035 µM | 9.4 mL/min/kg |
| CC1CN(c2ccc(C#N)c3ncccc23)CCN1CC(=O)Nc1ccc(N2CCNCC2)cc1 (centres unmarked) [Example 17, 2-[4-(8-Cyano-5-quinolyl)-2-methyl-piperazin-1-yl]-N-(4-piperazin-1-ylpheny)acetamide] | 0.088 µM | 6.9 mL/min/kg |
| CC1CN(c2ccc(C#N)c3ncccc23)CCN1CC(=O)Nc1ccc2c(c1)CCNC2 (centres unmarked) [Example 18, 2-[4-(8-Cyano-5-quinolyl)-2-methyl-piperazin-1yl]-N-(1,2,3,4-tetrahydroisoquinolin-6-yl)acetamide] | 0.06 µM | 6.3 mL/min/kg |
| CC1CN(c2ccc(C#N)c3ncccc23)CCN1CC(=O)N1CCC(C2CCN(C)CC2)CC1 (centres unmarked) [Example 19, 5-[3-methyl-4-[2-[4-(1-methyl-4-piperidyl)-1-piperidyl]-2-oxo-ethyl]piperazin-1-yl]quinoline-8-carbonitrile] | 0.057 µM | 6.7 mL/min/kg |
